Experimental data reported in patent US7541353B2, “Compounds for the treatment of hepatitis C” (Bristol-Myers Squibb Company, priority 2007, dated 2009).
Where two headings read alike, the source gives them in different places.

Experiments:
[1] = tested on: HCV replicon cells; test: HCV replicon FRET assay; format: cell-based
Method: FRET Assay Preparation. The HCV FRET screening assay was performed in 96-well cell culture plates. The FRET peptide (Anaspec, Inc.) (Taliani et al., Anal. Biochem. 1996, 240, 60-67) contains a fluorescence donor, EDANS, near one end of the peptide and an acceptor, DABCYL, near the other end. The fluorescence of the peptide is quenched by […] resonance energy transfer (RET) between the donor and the acceptor, but as the NS3 protease cleaves the peptide the products are released from RET quenching and the fluorescence of the donor becomes apparent. The assay reagent was made as follows: 5× cell Luciferase cell culture lysis reagent from Promega (#E153A) diluted to 1× with dH2O, NaCl added to 150 mM final, the FRET peptide diluted to 20 μM final from a 2 mM stock.
To prepare plates, HCV replicon cells, with or without a Renilla luciferase reporter gene, were trypsinized and plated in a 96-well plate with titrated test compounds added in columns 3 through 12; columns 1 and 2 contained a control compound (HCV control inhibitor), and the bottom row contained cells with DMSO only. The plates were then placed in a CO2 incubator at 37° C.
Assays. Subsequent to addition of the test compounds described above (FRET Assay Preparation), at various times the plate was removed and Alamar blue solution (Trek Diagnostics, #00-100) was added to measure cellular toxicity. After reading in a Cytoflour 4000 instrument (PE Biosystems), plates were rinsed with PBS and then used for FRET assay by the addition of 30 ul of the FRET peptide assay reagent described above (FRET Assay Preparation) per well. The plate was then placed into the Cytoflour 4000 instrument which had been set to 340 excite/490 emission, automatic mode for up to 20 cycles and the plate read in a kinetic mode. Typically, the signal to noise using an endpoint analysis after the reads was at least three-fold. Alternatively, after Alamar blue reading, plates were rinsed with PBS, then used for luciferase assay using the Promega Dual-Glo Luciferase Assay System or the Promega EnduRen Live Cell Substrate assay.
Compound analysis was performed by quantification of the relative HCV replicon inhibition and the relative cytotoxicity values. To calculate cytoxicity values, the average Alamar Blue fluorescence signals from the control wells were set as 100% non-toxic. The individual signals in each of the compound test wells were then divided by the average control signal and multiplied by 100% to determine […]. To calculate the HCV replicon inhibition values, an average background value was obtained from the two wells containing the highest amount of HCV control inhibitor at the end of the assay period. These numbers were similar to those obtained from naïve Huh-7 cells. The background numbers were then subtracted from the average signal obtained from the control wells and this number was used as 100% activity. The individual signals in each of the compound test wells were then divided by the averaged control values after background subtraction and multiplied by 100% to determine percent activity. EC50 values were calculated as the concentration which caused a 50% reduction in FRET or luciferase activity. The two numbers generated for the compound plate, percent cytoxicity and percent activity, were used to determine compounds of interest for further analysis.

[2] = target: T1, HCV NS5B (Hepatitis C virus genotype 1b, UniProt Q9WMX2); test: Modified HCV NS5B RdRp enzyme assay (preincubation protocol); format: biochemical
T1 construct: The cDNA encoding the NS5B protein of HCV, genotype 1b; made in house; host or cells: E. coli BL21(DE3)
T1 sequence (Q9WMX2 2420-2992): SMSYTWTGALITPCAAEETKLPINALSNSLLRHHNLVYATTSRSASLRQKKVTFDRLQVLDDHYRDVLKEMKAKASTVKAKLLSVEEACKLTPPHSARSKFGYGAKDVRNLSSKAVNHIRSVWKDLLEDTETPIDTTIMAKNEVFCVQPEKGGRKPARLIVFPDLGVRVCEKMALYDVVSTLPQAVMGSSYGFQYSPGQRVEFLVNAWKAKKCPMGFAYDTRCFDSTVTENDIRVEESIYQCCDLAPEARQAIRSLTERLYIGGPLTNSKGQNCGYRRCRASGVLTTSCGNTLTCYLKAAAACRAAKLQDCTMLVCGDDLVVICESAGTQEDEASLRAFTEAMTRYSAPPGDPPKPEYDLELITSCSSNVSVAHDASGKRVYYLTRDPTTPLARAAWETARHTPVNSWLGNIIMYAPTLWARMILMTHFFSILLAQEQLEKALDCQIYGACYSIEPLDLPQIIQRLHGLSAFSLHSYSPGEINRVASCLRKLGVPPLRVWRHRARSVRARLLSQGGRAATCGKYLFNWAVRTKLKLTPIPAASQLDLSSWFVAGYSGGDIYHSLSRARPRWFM
Method: HCV NS5B RdRp cloning, expression, and purification. The cDNA encoding the NS5B protein of HCV, genotype 1b, was cloned into the pET21a expression vector. The protein was expressed with an 18 amino acid C-terminal truncation to enhance the solubility. The E. coli competent cell line BL21(DE3) was used for expression of the protein. Cultures were grown at 37° C. for ˜4 hours until the cultures reached an optical density of 2.0 at 600 nm. The cultures were cooled to 20° C. and induced with 1 mM IPTG. Fresh ampicillin was added to a final concentration of 50 μg/ml and the cells were grown overnight at 20° C.
Cell pellets (3L) were lysed for purification to yield 15-24 mgs of purified NS5B. The lysis buffer consisted of 20 mM Tris-HCl, pH 7.4, 500 mM NaCl, 0.5% triton X-100, 1 mM DTT, 1 mM EDTA, 20% glycerol, 0.5 mg/ml lysozyme, 10 mM MgCl2, 15 ug/ml deoxyribonuclease I, and Complete™ protease inhibitor tablets (Roche). After addition of the lysis buffer, frozen cell pellets were resuspended using a tissue homogenizer. To reduce the viscosity of the sample, aliquots of the lysate were sonicated on ice using a microtip attached to a Branson sonicator. The sonicated lysate was centrifuged at 100,000×g for 1 hr at 4° C. and filtered through a 0.2 μm filter unit (Corning).
The protein was purified using two sequential chromatography steps: Heparin sepharose CL-6B and polyU sepharose 4B (Pharmacia). The chromatography buffers were identical to the lysis buffer but contained no lysozyme, deoxyribonuclease I, MgCl2 or protease inhibitor and the NaCl concentration of the buffer was adjusted according to the requirements for charging the protein onto the column. Each column was eluted with a NaCl gradient which varied in length from 5-50 column volumes depending on the column type. After the final chromatography step, the resulting purity of the enzyme is >90% based on SDS-PAGE analysis. The enzyme was aliquoted and stored at −80° C.
Standard HCV NS5B RdRp enzyme assay. HCV RdRp genotype 1b assays were run in a final volume of 60 μl in 96 well plates (Corning 3600). The assay buffer is composed of 20 mM Hepes, pH 7.5, 2.5 mM KCl, 2.5 mM MgCl2, 1 mM DTT, 1.6 U RNAse inhibitor (Promega N2515), 0.01 mg/ml BSA (Sigma B6917), and 2% glycerol. All compounds were serially diluted (3-fold) in DMSO and diluted further in water such that the final concentration of DMSO in the assay was 2%. HCV RdRp genotype 1b enzyme was used at a final concentration of 28 nM. A polyA template was used at 6 nM, and a biotinylated oligo-dT12 primer was used at 180 nM final concentration. Template was obtained commercially (Amersham 27-4110). Biotinylated primer was prepared by Sigma Genosys. 3H-UTP was used at 0.6 μCi (0.29 μM total UTP). Reactions were initiated by the addition of enzyme, incubated at 30° C. for 60 min, and stopped by adding 25 μl of 50 mM EDTA containing SPA beads (4 μg/μl, Amersham RPNQ 0007). Plates were read on a Packard Top Count NXT after >1 hr incubation at room temperature.
Modified HCV NS5B RdRp enzyme assay. A modified enzyme assay was performed essentially as described for the standard enzyme assay except for the following: The biotinylated oligo dT12 primer was precaptured on streptavidin-coated SPA beads by mixing primer and beads in assay buffer and incubating at room temperature for one hour. Unbound primer was removed after centrifugation. The primer-bound beads were resuspended in 20 mM Hepes buffer, pH 7.5 and used in the assay at final concentrations of 20 nM primer and 0.67 μg/μl beads. Order of addition in the assay: enzyme (1.75 nM) was added to diluted compound followed by the addition of a mixture of template (0.36 nM), 3H-UTP (0.6 μCi, 0.29 μM), and primer-bound beads, to initiate the reaction; concentrations given are final. Reactions were allowed to proceed for 4 hours at 30° C.
IC50 values for compounds were determined using seven different [I]. […]

COc1ccc2c(c1)C1CC1(C(=O)N1C3CCCC1COC3)Cn1c-2c(C2CCCCC2)c2ccc(C(=O)NS(=O)(=O)C3CCCCC3)cc21 (stereo not drawn) [drawing 68]
EC50 ([1]; Hepatitis C virus): 0.00458 to 0.5 µM
IC50 [2]: 0.00458 to 0.5 µM

COc1ccc2c(c1)C1CC1(C(=O)N1C3CCC1CC(C)(O)C3)Cn1c-2c(C2CCCCC2)c2ccc(C(=O)NS(=O)(=O)C(C)C)cc21 (stereo not drawn)
EC50 ([1]; Hepatitis C virus): 0.00458 to 0.5 µM
IC50 [2]: 0.00458 to 0.5 µM

COc1ccc2c(c1)[C@@H]1C[C@]1(C(=O)N1C3COCC1COC3)Cn1c-2c(C2CCCCC2)c2ccc(C(=O)NS(=O)(=O)N(C)C)cc21
EC50 ([1]; Hepatitis C virus): 0.00458 to 0.5 µM
IC50 [2]: 0.00458 to 0.5 µM

COc1ccc2c(c1)C1CC1(C(=O)N1C3CCC1CC(O)(C(C)(C)C)C3)Cn1c-2c(C2CCCCC2)c2ccc(C(=O)NS(=O)(=O)N(C)C)cc21 (stereo not drawn)
EC50 ([1]; Hepatitis C virus): 0.00458 to 0.5 µM
IC50 [2]: 0.00458 to 0.5 µM

COc1ccc2c(c1)C1CC1(C(=O)N1C3CCC1CC(NCC1CC1)C3)Cn1c-2c(C2CCCCC2)c2ccc(C(=O)NS(=O)(=O)N(C)C)cc21 (stereo not drawn) [drawing 23]
EC50 ([1]; Hepatitis C virus): 0.00458 to 0.5 µM
IC50 [2]: 0.00458 to 0.5 µM

COc1ccc2c(c1)C1CC1(C(=O)N1C3COCC1COC3)Cn1c-2c(C2CCCCC2)c2ccc(C(=O)NS(=O)(=O)C3CCCC3)cc21 (stereo not drawn)
EC50 ([1]; Hepatitis C virus): 0.00458 to 0.5 µM
IC50 [2]: 0.00458 to 0.5 µM

COc1ccc2c(c1)C1CC1(C(=O)N1C3CCC1CC(N(C)Cc1ccccc1)C3)Cn1c-2c(C2CCCCC2)c2ccc(C(=O)NS(=O)(=O)N(C)C)cc21 (stereo not drawn)
EC50 ([1]; Hepatitis C virus): 0.00458 to 0.5 µM
IC50 [2]: 0.00458 to 0.5 µM

CNC1CC2CCC(C1)N2C(=O)C12CC1c1cc(OC)ccc1-c1c(C3CCCCC3)c3ccc(C(=O)NS(=O)(=O)N(C)C)cc3n1C2 (stereo not drawn) [drawing 29]
EC50 ([1]; FRET assay): 0.00458 to 0.5 µM
IC50 ([2]; preincubation protocol): 0.00458 to 0.5 µM

COc1ccc2c(c1)C1CC1(C(=O)N1C3CCC1CC(NCCN(C)C)C3)Cn1c-2c(C2CCCCC2)c2ccc(C(=O)NS(=O)(=O)N(C)C)cc21 (stereo not drawn)
EC50 ([1]; Hepatitis C virus): 0.00458 to 0.5 µM
IC50 [2]: 0.00458 to 0.5 µM

COc1ccc2c(c1)C1CC1(C(=O)N1C3CCC1CC(=O)C3)Cn1c-2c(C2CCCCC2)c2ccc(C(=O)NS(C)(=O)=O)cc21 (stereo not drawn)
EC50 ([1]; Hepatitis C virus): 0.00458 to 0.5 µM
IC50 [2]: 0.00458 to 0.5 µM

COc1ccc2c(c1)C1CC1(C(=O)N1C3CCC[C@@H]1COC3)Cn1c-2c(C2CCCCC2)c2ccc(C(=O)NS(=O)(=O)CC(F)(F)F)cc21 (stereo partly drawn)
EC50 ([1]; Hepatitis C virus): 0.00458 to 0.5 µM
IC50 [2]: 0.00458 to 0.5 µM

COc1ccc2c(c1)C=C(C(=O)N1C3CCCC1COC3)Cn1c-2c(C2CCCCC2)c2ccc(C(=O)NS(=O)(=O)C3CC3)cc21
EC50 ([1]; Hepatitis C virus): 0.00458 to 0.5 µM
IC50 [2]: 0.00458 to 0.5 µM

COc1ccc2c(c1)C1CC1(C(=O)N1C3CCC1CC(=O)C3)Cn1c-2c(C2CCCCC2)c2ccc(C(=O)NS(=O)(=O)C3CC3)cc21 (stereo not drawn)
IC50 [2]: 0.00458 to 0.5 µM

COc1ccc2c(c1)C1CC1(C(=O)N1C3CCC1COC3)Cn1c-2c(C2CCCCC2)c2ccc(C(=O)NS(=O)(=O)N(C)C)cc21 (stereo not drawn)
EC50 ([1]; Hepatitis C virus): 0.00458 to 0.5 µM
IC50 [2]: 0.00458 to 0.5 µM
